From patent publication US7838498B2, “Benzylic glycoside derivatives and methods of use” (Theracos, Inc., priority 2007, dated 2010)

Key:
[1] = biological target: T1, human SGLT2 (Homo sapiens, UniProt P31639); assay: Methyl-α-D-[U-14C]glucopyranoside uptake assay, cells stably expressing human SGLT2; format: cell-based; conditions: HEK293.ETN cells expressing human SGLT2, 1.5 h incubation
T1 construct: A full-length cDNA clone expressing human SGLT2 (GenScript Corporation) was subcloned
T1 sequence (P31639 1-672): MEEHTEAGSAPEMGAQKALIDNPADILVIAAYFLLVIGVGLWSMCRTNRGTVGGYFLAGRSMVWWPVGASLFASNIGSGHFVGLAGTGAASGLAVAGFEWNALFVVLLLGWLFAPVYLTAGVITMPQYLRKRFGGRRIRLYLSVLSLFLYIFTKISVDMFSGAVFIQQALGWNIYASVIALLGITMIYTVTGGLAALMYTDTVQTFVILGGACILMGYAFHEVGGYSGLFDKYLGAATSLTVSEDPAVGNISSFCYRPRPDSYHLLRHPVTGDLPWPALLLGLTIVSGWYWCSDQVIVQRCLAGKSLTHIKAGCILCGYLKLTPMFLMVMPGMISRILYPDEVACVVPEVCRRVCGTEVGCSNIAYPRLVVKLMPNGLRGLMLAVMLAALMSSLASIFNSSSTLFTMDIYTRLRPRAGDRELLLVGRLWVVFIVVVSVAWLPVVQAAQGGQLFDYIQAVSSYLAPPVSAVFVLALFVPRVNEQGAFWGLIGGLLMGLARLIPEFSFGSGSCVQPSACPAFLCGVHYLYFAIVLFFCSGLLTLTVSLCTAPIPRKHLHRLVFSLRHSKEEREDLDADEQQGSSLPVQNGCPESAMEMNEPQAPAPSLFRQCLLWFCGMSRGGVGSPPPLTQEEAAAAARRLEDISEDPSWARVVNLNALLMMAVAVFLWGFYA
Source text: A full-length cDNA clone expressing human SGLT2 (GenScript Corporation) was subcloned into […] and Not I sites of pEAK15 expression vector. Clones harboring the cDNA inserts were identified by restriction analysis.
Plasmid containing human SGLT2 was linearized with Nsi I and purified by agarose gel electrophoresis. Using Lipofectamine 2000 Transfection Reagent (Invitrogen Corporation), DNA was transfected into HEK293.ETN cells and cultured in Dulbecco's Modified Eagle Medium (DMEM) containing 10% fetal bovine serum (FBS) at 37° C. under 5% CO2 for 24 h. Transfectants were selected in the same growth medium supplemented with puromycin (Invitrogen Corporation) for two weeks. Puromycin-resistant cells were recovered and seeded on a fresh 96-well plate (single cell per well) and cultured in the presence of puromycin until cells became confluent. Puromycin-resistant clones were evaluated for SGLT2 activity in the methyl-α-D-[U-^14C]glucopyranoside uptake assay described below.
(§1) Cells expressing SGLT1 or SGLT2 were seeded on 96-well ScintiPlate scintillating plates (PerkinElmer, Inc.) in DMEM containing 10% FBS (1×10^5 cells per well in 100 μL medium) incubated at 37° C. under 5% CO2 for 48 h prior to the assay. Cells were washed twice with 150 μL of either sodium buffer (137 mM NaCl, 5.4 mM KCl, 2.8 mM CaCl2, 1.2 mM MgCl2, 10 mM tris(hydroxymethyl)aminomethane/N2-hydroxyethylpiperazine-N′-ethanesulfonic acid [Tris/Hepes], pH 7.2) or sodium-free buffer (137 mM N-methyl-glucamine, 5.4 mM KCl, 2.8 mM CaCl2, 1.2 mM MgCl2, 10 mM Tris/Hepes, pH 7.2). Test compound in 50 μL each of sodium or sodium-free buffer containing 40 μCi/L methyl-α-D-[U-^14C]glucopyranoside (Amersham Biosciences/GE Healthcare), either with (symbols in parentheses) or without (symbols without parentheses) 25% human serum, was added per well of a 96-well plate and incubated at 37° C. with shaking for either 2 h (SGLT1 assay) or 1.5 h (SGLT2 assay). Cells were washed twice with 150 μL of wash buffer (137 mM N-methylglucamine, 10 mM Tris/Hepes, pH 7.2) and methyl-α-D-[U-^14C]glucopyranoside uptake was quantitated using a TopCount scintillation counter (PerkinElmer, Inc.). Sodium-dependent glucopyranoside uptake was measured by subtracting the values obtained with sodium-free buffer from those obtained using sodium buffer (average of triplicate determinations).

[2] = biological target: T2, human SGLT1 (Homo sapiens, UniProt P13866); assay: Methyl-α-D-[U-14C]glucopyranoside uptake assay, COS-7 cells expressing human SGLT1; format: cell-based; conditions: COS-7 cells expressing human SGLT1, 2 h incubation
T2 construct: Full-length human SGLT1 cDNA on pDream2.1 expression vector was obtained from GenScript Corporation; host or cells: COS-7 cells (American Type Culture Collection)
T2 sequence (P13866 1-664): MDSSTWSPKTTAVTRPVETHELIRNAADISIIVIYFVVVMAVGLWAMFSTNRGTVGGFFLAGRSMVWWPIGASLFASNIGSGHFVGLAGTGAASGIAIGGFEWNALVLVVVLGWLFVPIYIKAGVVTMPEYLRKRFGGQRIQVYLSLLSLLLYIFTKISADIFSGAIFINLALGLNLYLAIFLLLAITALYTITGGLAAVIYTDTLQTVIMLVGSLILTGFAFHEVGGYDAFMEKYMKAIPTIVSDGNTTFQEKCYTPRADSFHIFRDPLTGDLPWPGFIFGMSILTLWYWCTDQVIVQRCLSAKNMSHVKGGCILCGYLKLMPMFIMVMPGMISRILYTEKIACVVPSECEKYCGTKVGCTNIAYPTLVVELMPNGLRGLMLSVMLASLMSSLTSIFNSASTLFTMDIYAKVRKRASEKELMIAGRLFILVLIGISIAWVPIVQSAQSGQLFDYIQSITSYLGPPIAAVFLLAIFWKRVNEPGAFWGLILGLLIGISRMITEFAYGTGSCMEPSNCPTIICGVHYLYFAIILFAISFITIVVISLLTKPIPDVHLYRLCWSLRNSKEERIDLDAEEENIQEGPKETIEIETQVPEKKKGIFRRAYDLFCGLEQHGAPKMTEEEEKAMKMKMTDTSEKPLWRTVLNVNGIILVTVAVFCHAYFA
Method: Full-length human SGLT1 cDNA on pDream2.1 expression vector was obtained from GenScript Corporation and propagated in Escherichia coli strain DH5α using Luria-Bertani (LB) medium containing ampicillin. Plasmid DNA was isolated using the QIAGEN Plasmid Midi Kit (QIAGEN Inc.). […] Transfected cells were stored in DMEM containing 10% dimethyl sulfoxide (DMSO) at −80° C.
as §1

[3] = with 25% human serum (symbols in parentheses)
[4] = without human serum (symbols without parentheses)

SMILES | IC50 [1, 3] | IC50 [2, 3] | IC50 [1, 4] | IC50 [2, 4]
CC#CCOCc1cc(Cl)c(Cc2ccc(O)cc2)cc1[C@@H]1O[C@H](CO)[C@@H](O)[C@H](O)[C@H]1O [Compound BC, (2S,3R,4R,5S,6R)-2-(2-((but-2-ynyloxy)methyl)-4-chloro-5-(4-hydroxybenzyl)phenyl)-6-(hydroxymethyl)tetrahydro-2H-pyran-3,4,5-triol] | < 1 µM | > 10 µM |  | 
C#CCOCc1cc(Cl)c(Cc2ccc(CC)cc2)cc1[C@@H]1O[C@H](COC(C)=O)[C@@H](O)[C@H](O)[C@H]1O [Compound BD, ((2R,3S,4R,5R,6S)-6-(4-chloro-5-(4-ethylbenzyl)-2-((prop-2-ynyloxy)methyl)phenyl)-3,4,5-trihydroxytetrahydro-2H-pyran-2-yl)methyl acetate] |  |  | < 1 µM | > 10 µM
CC#CCOCCOc1cc(Cl)c(Cc2ccc(CC)cc2)cc1[C@@H]1O[C@H](CO)[C@@H](O)[C@H](O)[C@H]1O [Compound BF, (2S,3R,4R,5S,6R)-2-(2-(2-(but-2-ynyloxy)ethoxy)-4-chloro-5-(4-ethylbenzyl)phenyl)-6-(hydroxymethyl)tetrahydro-2H-pyran-3,4,5-triol] | < 1 µM | > 10 µM |  | 
CCc1ccc(Cc2cc([C@@H]3O[C@H](CO)[C@@H](O)[C@H](O)[C@H]3O)c(OCCOC3CCCC3)cc2Cl)cc1 [Compound BG, (2S,3R,4R,5S,6R)-2-(4-chloro-2-(2-(cyclopentyloxy)ethoxy)-5-(4-ethylbenzyl)phenyl)-6-(hydroxymethyl)tetrahydro-2H-pyran-3,4,5-triol] | < 1 µM | > 10 µM |  | 
CCOc1ccc(Cc2cc([C@@H]3O[C@H](CO)[C@@H](O)[C@H](O)[C@H]3O)c(CCOCCF)cc2Cl)cc1 [Compound BH, (2S,3R,4R,5S,6R)-2-(4-chloro-5-(4-ethoxybenzyl)-2-(2-(2-fluoroethoxy)ethyl)phenyl)-6-(hydroxymethyl)tetrahydro-2H-pyran-3,4,5-triol] | < 1 µM | 1 to 10 µM |  | 
CC#CCOCCCc1cc(Cl)c(Cc2ccc(OCC)cc2)cc1[C@@H]1O[C@H](CO)[C@@H](O)[C@H](O)[C@H]1O [Compound BO, (2S,3R,4R,5S,6R)-2-(2-(3-(but-2-ynyloxy)propyl)-4-chloro-5-(4-ethoxybenzyl)phenyl)-6-(hydroxymethyl)tetrahydro-2H-pyran-3,4,5-triol] | < 1 µM | > 10 µM |  | 
CCc1ccc(Cc2cc([C@@H]3O[C@H](CO)[C@@H](O)[C@H](O)[C@H]3O)c(OCCOC(F)(F)F)cc2Cl)cc1 [Compound BQ, (2S,3R,4R,5S,6R)-2-(4-chloro-5-(4-ethylbenzyl)-2-(2-(trifluoromethoxy)ethoxy)phenyl)-6-(hydroxymethyl)tetrahydro-2H-pyran-3,4,5-triol] | < 1 µM | > 10 µM |  | 
CCc1ccc(Cc2cc([C@@H]3O[C@H](CO)[C@@H](O)[C@H](O)[C@H]3O)c(OCCOCC(F)(F)F)cc2Cl)cc1 [Compound BS, (2S,3R,4R,5S,6R)-2-(4-chloro-5-(4-ethylbenzyl)-2-(2-(2,2,2-trifluoroethoxy)ethoxy)phenyl)-6-(hydroxymethyl)tetrahydro-2H-pyran-3,4,5-triol] | < 1 µM | > 10 µM |  | 
CCc1ccc(Cc2cc([C@@H]3O[C@H](CO)[C@@H](O)[C@H](O)[C@H]3O)c(COCCF)cc2Cl)cc1 [Compound BZ, (2S,3R,4R,5S,6R)-2-(4-chloro-5-(4-ethylbenzyl)-2-((2-fluoroethoxy)methyl)phenyl)-6-(hydroxymethyl)tetrahydro-2H-pyran-3,4,5-triol] |  |  | < 1 µM | > 10 µM
CCc1ccc(Cc2cc([C@@H]3O[C@H](CO)[C@@H](O)[C@H](O)[C@H]3O)c(COCC(C)(F)F)cc2Cl)cc1 [Compound CB, (2S,3R,4R,5S,6R)-2-(4-chloro-2-((2,2-difluoropropoxy)methyl)-5-(4-ethylbenzyl)phenyl)-6-(hydroxymethyl)tetrahydro-2H-pyran-3,4,5-triol] |  |  | < 1 µM | > 10 µM
C#CCOCc1cc(Cl)c(Cc2ccc(OCC)cc2)cc1[C@@H]1O[C@H](CO)[C@@H](O)[C@H](O)[C@H]1O [Compound CC, (2S,3R,4R,5S,6R)-2-(4-chloro-5-(4-ethoxybenzyl)-2-((prop-2-ynyloxy)methyl)phenyl)-6-(hydroxymethyl)tetrahydro-2H-pyran-3,4,5-triol] | < 1 µM | > 10 µM |  | 
C#CCOCc1cc(Cl)c(Cc2ccc(OCC)cc2)cc1[C@@H]1O[C@H](COC(C)=O)[C@@H](O)[C@H](O)[C@H]1O [Compound CD, ((2R,3S,4R,5R,6S)-6-(4-chloro-5-(4-ethoxybenzyl)-2-((prop-2-ynyloxy)methyl)phenyl)-3,4,5-trihydroxytetrahydro-2H-pyran-2-yl)methyl acetate] | < 1 µM | > 10 µM |  | 
C=CCOCc1cc(Cl)c(Cc2ccc(CC)cc2)cc1[C@@H]1O[C@H](CO)[C@@H](O)[C@H](O)[C@H]1O [Compound I, (2S,3R,4R,5S,6R)-2-(2-(allyloxymethyl)-4-chloro-5-(4-ethylbenzyl)phenyl)-6-(hydroxymethyl)tetrahydro-2H-pyran-3,4,5-triol] |  |  | < 1 µM | > 10 µM
CCc1ccc(Cc2cc([C@@H]3O[C@H](CO)[C@@H](O)[C@H](O)[C@H]3O)c(COCC(C)=O)cc2Cl)cc1 [Compound K, 1-(5-chloro-4-(4-ethylbenzyl)-2-((2S,3R,4R,5S,6R)-3,4,5-trihydroxy-6-(hydroxymethyl)tetrahydro-2H-pyran-2-yl)benzyloxy)propan-2-one] |  |  | < 1 µM | > 10 µM
CCc1ccc(Cc2cc([C@@H]3O[C@H](CO)[C@@H](O)[C@H](O)[C@H]3O)c(COCC(O)CO)cc2Cl)cc1 (stereo partly drawn) [Compound L, (2S,3R,4R,5S,6R)-2-(4-chloro-2-((2,3-dihydroxypropoxy)methyl)-5-(4-ethylbenzyl)phenyl)-6-(hydroxymethyl)tetrahydro-2H-pyran-3,4,5-triol] |  |  | < 1 µM | > 10 µM
